# Reference: patent publication US20200281949A1, “METHODS FOR TREATING CASTRATION-RESISTANT AND CASTRATION-SENSITIVE PROSTATE CANCER” (TOLERO PHARMACEUTICALS, INC., priority 2018, published 2020)
# Assays:
# [1] = tested on: subcutaneous 22Rv1 human prostate cancer xenograft; test: Efficacy study in the 22Rv1 xenograft prostate cancer model; format: in vivo, male BALB/c nude mice; settings: castrated mice, 21 days; doses per Table 1: Cmpd Str (I) 1.25 mg/kg p.o. BID or 10 mg/kg p.o. Q7D; enzalutamide 30 mg/kg p.o. QD; docetaxel 10 mg/kg i.p. Q7D; ABT199 100 mg/kg p.o. QD
# Procedure: The objective of this study was to evaluate the in vivo therapeutic efficacy of the compound of structure (I) or a pharmaceutically acceptable salt or zwitterionic form thereof in the treatment of a subcutaneous 22Rv1 human prostate cancer xenograft model. For the 22Rv1 model, efficacy of the compound of structure (I) was evaluated in male BALB/c nude mice. Cobalt-60 irradiation of all mice was performed 2 days before the tumor inoculation at 2 Gy (1 Gy=100 rads). Each mouse was inoculated at the right flank with 1×10^7 tumor cells in 0.1 ml of PBS mixed with matrigel (1:1). The date of tumor cell inoculation was denoted as day 0.
# Castration was performed when mean tumor volume reached approximately 200 mm^3. Mice were anesthetized with ketamine/xylazine; surgical castration was performed via a midline scrotal incision allowing bilateral access to the hemiscrotal contents; after exposing each testicle, a 6-0 Vicryl suture was used to ligate the spermatic cord and then remove the testicle; the scrota and skin was then closed with 6-0 Vicryl suture, separately. Treatments started when the mean tumor volume re-grew to approximately 100 mm^3.
# After tumors reached the appropriate size, approximately 100-200 mm^3, mice were randomized into treatment groups 1-11, which are shown in Table 1. Each treatment was administered starting on day 15, at a dosing volume of 5 μL/g and continued for 21 days (or 22 days for groups with treatment at Q7D). For groups with treatment at Q7D×3 weeks, dosing was performed on days 1, 8, and 15 post-randomization, and the study was terminated on day 22 post randomization. The combined treatment intervals were each 0 h, and the interval for BID was 8 h. Randomization was performed based on the “Matched distribution” method (StudyDirector™ software, version 3.1.399.19) randomized block design.
# Tumor volumes were measured twice per week after randomization in two dimensions using a caliper, and the volume was expressed in mm^3 using the formula: “V=(L×W×W)/2,” where V is tumor volume, L is tumor length (the longest tumor dimension) and W is tumor width (the longest tumor dimension perpendicular to L). The average tumor volume for each group, as a percentage of the average tumor volume of the control group (group 1), is shown in FIG. 6. […] The percentage shown in FIG. 7 (% T/C) is calculated as mean(T)/mean(C)*100%, with “T” representing tumor volume and “C” representing tumor volume for group 1.
# T and C are the mean tumor volume (or weight) of the treated groups and control group (group 1), respectively, on a given day. The percentages shown in FIG. 10 are calculated as % ΔT/C=(mean(T)−mean(T0))/(mean(C)−mean(C0))*100%, with “0” indicating the initial timepoint.
# [2] = tested on: PC-3 prostate tumor xenograft; test: Tumor growth in PC-3 mouse xenograft model; format: in vivo; settings: oral gavage 1.25 mg/kg BID x 21 days, or 7.5 or 15 mg/kg q7d x 3
# Procedure: The effects of the compound of structure (I) on tumor growth in the PC-3 mouse xenograft model were also assessed. PC-3 prostate tumor cells were maintained in vitro as a monolayer culture in Ham's F12K medium supplemented with 10% fetal bovine serum at 37° C. in an atmosphere of 5% CO2 in air. The cells in an exponential growth phase were harvested and counted for tumor inoculation. Each mouse was inoculated subcutaneously at the right flank region with PC-3 prostate tumor cells (5×10^6 cells) in 0.1 ml of PBS for tumor development. When the mean tumor size reached approximately 100 mm^3, the mice were randomized and divided into study groups. Compound of structure (I) was administered at 1.25 mg/kg twice daily (BID) for 21 days, or 7.5 mg/kg or 15 mg/kg once weekly (q7d×3) by oral gavage. Tumor volumes were measured twice weekly in two dimensions using a caliper, and the volume expressed in mm^3 using the formula: V=(L×W×W)/2, where V is tumor volume, L is tumor length (the longest tumor dimension) and W is tumor width (the longest tumor dimension perpendicular to L).
# [3] = Phase I dose-escalation study in patients with advanced solid tumors: safety; format: in vivo, human
# Text: Patients with advanced metastatic or progressive solid tumors who were refractory to, or intolerant of, established therapy known to provide clinical benefit for their condition were enrolled. Cohorts of 3-6 patients each received escalating doses of compound of structure (I) using a modified Fibonacci dose escalation approach. Once the optimal dose has been established, additional patients may be enrolled to confirm safety and to explore efficacy. Twenty additional patients will be enrolled in an expansion cohort at the maximum tolerated dose (MTD).
# This is an ongoing Phase 1, open-label, dose-escalation, safety, PK and PD study. The proposed starting dose and schedule for oral compound of structure (I) was a 1-mg flat dose once daily (QD) for 14 days followed by a 7-day drug-free recovery period (each cycle=21 days). In the absence of dose-limiting toxicities (DLTs) in the first cohort of at least 3 patients, the dose was increased using a modified Fibonacci dose escalation scheme, and BID dosing commenced according to the dose escalation schedule described in Table 8. The first patient in cohort 6 has been enrolled at 8 mg compound of structure (I) BID. The baseline demographics of the first 14 patients enrolled in the study are described in Table 6.
# DLT was defined as any one of the following events observed in cycle 1, regardless of investigator attribution, unless there was a clear alternative explanation: • 1. Grade 3 or greater febrile neutropenia • 2. Grade 4 neutropenia for ≥7 consecutive days • 3. Grade 4 thrombocytopenia or Grade 3 thrombocytopenia with clinically significant bleeding or that requires a platelet transfusion • 4. Grade 3 or 4 nonhematologic AEs will be considered dose limiting, regardless of duration aside from the specific parameters described herein • 5. Grade 4 nausea, vomiting, or diarrhea, regardless of duration • 6. Dosing delays≥1 week due to treatment-emergent adverse events (TEAEs) or related severe laboratory test values • 7. Any AST and ALT elevation>3× ULN (if baseline value was normal) or ≥3× the baseline value (if baseline value was abnormal) accompanied by serum bilirubin levels>2×ULN • 8. […] Any Grade≥3 elevations in creatinine • 10. Any Grade 5 toxicity
# [4] = Phase I dose-escalation study in patients with advanced solid tumors: plasma PK; format: in vivo, human; settings: any timepoint
# Procedure: Plasma PK parameters of compound of structure (I) and alvocidib were evaluated in Cohorts 1-5 at specific timepoints during the study. Blood was collected from patients in Cohorts 1-5 according to the pharmacokinetic sampling schedule described in Table 9.
# PK parameters were estimated using standard noncompartmental methods. Actual sample collection times were used rather than scheduled collection times. Plasma concentrations below the limit of quantification were treated as 0. Imbedded missing plasma concentrations (e.g., missing values between two observed values) were estimated using linear […]. This is consistent with using the trapezoidal rule to calculate AUC. Other missing plasma concentrations were excluded from calculations to estimate PK parameters.
# [5] = patients, oral, Cohorts 1-5 (1 mg QD to 6 mg BID), to date
structure (smiles),measurement,setting,value
CN1CC[C@H](c2c(OP(=O)(O)O)cc(O)c3c(=O)cc(-c4ccccc4Cl)oc23)[C@H](O)C1 [compound of structure (I)],anti-cancer activity in the 22Rv1 xenograft model (tumor growth),[1],modest activity
same,tumor growth in PC-3 mouse xenograft model,[2],inhibited tumor growth
same,"Treatment-emergent adverse events, Grade 3: Anemia","[3]; number of patients (%), N = 14",1 (7%)
same,"Treatment-emergent adverse events, Grade 3: Chest Pain","[3]; number of patients (%), N = 14",1 (7%)
same,"Treatment-emergent adverse events, Grade 3: Haematuria","[3]; number of patients (%), N = 14",1 (7%)
same,"Treatment-emergent adverse events, Grade 3: Hypotension","[3]; number of patients (%), N = 14",1 (7%)
same,"Treatment-emergent adverse events, Grade 3: Hypoxia","[3]; number of patients (%), N = 14",1 (7%)
same,"Treatment-emergent adverse events, Grade 3: Malignant Pleural Effusion","[3]; number of patients (%), N = 14",1 (7%)
same,"Treatment-emergent adverse events, Grade 3: Pain","[3]; number of patients (%), N = 14",1 (7%)
same,"Treatment-emergent adverse events, Grade 3: Swelling","[3]; number of patients (%), N = 14",1 (7%)
same,dose-limiting diarrhea or neutropenia,[3]; [5],no evidence of dose-limiting diarrhea or neutropenia
same,unexplained toxicity,[3]; [5],no unexplained toxicity
same,detection of compound of structure (I) in plasma,"[4]; Cohort 2, 1 mg BID oral, any sample",no compound of structure (I) was detected
same,detectable compound of structure (I) in plasma,"[4]; across cohorts (FIGS. 24G, 24H), oral Formulation No. 401-01",no detectable compound of structure (I)
